Data published in patent publication US7323465B2, “Alkansulfonamides as endothelin antagonists” (Actelion Pharmaceuticals Ltd., priority 2002, dated 2008).

Legend:
[1] = molecular target: T1, human recombinant ETA receptors (Homo sapiens, UniProt P25101); assay: Inhibition of [125I]ET-1 binding to membranes from CHO cells carrying human ETA receptors
T1 construct: expressed in transfected cells; host or cells: CHO cells (microsomal membranes)
T1 sequence (P25101 21-427): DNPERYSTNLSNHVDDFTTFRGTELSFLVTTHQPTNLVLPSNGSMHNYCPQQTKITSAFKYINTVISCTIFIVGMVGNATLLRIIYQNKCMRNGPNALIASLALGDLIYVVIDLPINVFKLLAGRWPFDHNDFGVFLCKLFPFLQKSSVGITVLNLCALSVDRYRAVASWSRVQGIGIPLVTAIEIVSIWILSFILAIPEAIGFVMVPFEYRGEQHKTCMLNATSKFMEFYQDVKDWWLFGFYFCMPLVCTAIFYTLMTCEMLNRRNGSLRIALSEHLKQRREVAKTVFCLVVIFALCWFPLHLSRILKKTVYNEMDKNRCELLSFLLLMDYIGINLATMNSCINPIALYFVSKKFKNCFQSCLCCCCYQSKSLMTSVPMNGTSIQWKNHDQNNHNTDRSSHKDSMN
Description: (§1) 1) Inhibition of Endothelin Binding to Membranes from CHO Cells Carrying Human ET Receptors:
(§2) For competition binding studies, membranes of CHO cells expressing human recombinant ETA or ETB receptors were used.
(§3) The assay was performed in 200 uL 50 mM Tris/HCl buffer, pH 7.4, including 25 mM MnCl2, 1 mM EDTA and 0.5% (w/v) BSA in polypropylene microtiter plates. […] After 2 h, the membranes were filtered on filterplates containing GF/C filters (Unifilterplates from Canberra Packard S.A. Zürich, Switzerland). To each well, 50 uL of scintillation cocktail was added (MicroScint 20, Canberra Packard S.A. Zürich, Switzerland) and the filter plates counted in a microplate counter (TopCount, Canberra Packard S.A. Zürich, Switzerland).
(§4) All the test compounds were dissolved, diluted and added in DMSO.

[2] = molecular target: T2, human recombinant ETB receptors (Homo sapiens, UniProt P24530); assay: Inhibition of [125I]ET-1 binding to membranes from CHO cells carrying human ETB receptors
T2 construct: expressed in transfected cells; host or cells: CHO cells (microsomal membranes)
T2 sequence (P24530 27-442): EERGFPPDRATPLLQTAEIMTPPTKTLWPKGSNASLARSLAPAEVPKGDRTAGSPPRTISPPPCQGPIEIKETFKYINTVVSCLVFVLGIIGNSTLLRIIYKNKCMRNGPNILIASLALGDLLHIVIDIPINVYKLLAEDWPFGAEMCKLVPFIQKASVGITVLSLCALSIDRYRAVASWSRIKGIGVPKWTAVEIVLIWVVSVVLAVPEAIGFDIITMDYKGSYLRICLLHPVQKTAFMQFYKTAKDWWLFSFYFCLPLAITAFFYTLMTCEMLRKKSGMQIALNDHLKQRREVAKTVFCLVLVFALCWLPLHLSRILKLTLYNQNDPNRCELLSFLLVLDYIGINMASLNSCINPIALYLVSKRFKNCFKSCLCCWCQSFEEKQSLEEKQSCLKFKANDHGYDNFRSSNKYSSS
Description: as §1, §2, §3, §4
Note: 2.5% DMSO.

SMILES | IC50 [1] | IC50 [2]
CCS(=O)(=O)Nc1ncnc(OCCOc2ncc(OC)cn2)c1-c1ccc(Br)cc1 [Example 59] | 6.8 nM | > 1000 nM
CCS(=O)(=O)Nc1nc(C2CC2)nc(OCCOc2ncc(Br)cn2)c1-c1ccc(C)cc1 [Example 62] | 5.5 nM | > 1000 nM
CCS(=O)(=O)Nc1nc(C2CC2)nc(OCCOc2ncc(OC)cn2)c1-c1ccc(C)cc1 [Example 63] | 25 nM | > 1000 nM
CCS(=O)(=O)Nc1nc(C2CC2)nc(OCCOc2ncc(SC)cn2)c1-c1ccc(C)cc1 [Example 64] | 3.5 nM | > 1000 nM
CCS(=O)(=O)Nc1nc(C2CC2)nc(OCCOc2ncc(S(C)(=O)=O)cn2)c1-c1ccc(C)cc1 [Example 65] | 1.4 nM | > 1000 nM
CCS(=O)(=O)Nc1ncnc(OCCOc2ncc(Br)cn2)c1-c1ccc(Cl)cc1 [Example 66] | 1.5 nM | > 1000 nM
CCS(=O)(=O)Nc1ncnc(OCCOc2ncc(OC)cn2)c1-c1ccc(Cl)cc1 [Example 67] | 13 nM | > 1000 nM
CCS(=O)(=O)Nc1ncnc(OCCOc2ncc(SC)cn2)c1-c1ccc(Cl)cc1 [Example 68] | 1.2 nM | 563 nM
CCS(=O)(=O)Nc1ncnc(OCCOc2ncc(S(C)(=O)=O)cn2)c1-c1ccc(Cl)cc1 [Example 69] | 1.2 nM | 314 nM
CCCS(=O)(=O)Nc1ncnc(OCCOc2ncc(OC)cn2)c1-c1ccc(Br)cc1 [Example 71] | 3.6 nM | > 1000 nM
CCCCS(=O)(=O)Nc1ncnc(OCCOc2ncc(OC)cn2)c1-c1ccc(C)cc1 [Example 75] | 3.5 nM | > 1000 nM
CCCCS(=O)(=O)Nc1nc(C2CC2)nc(OCCOc2ncc(Br)cn2)c1-c1ccc(C)cc1 [Example 77] | 2.3 nM | > 1000 nM
CCCCS(=O)(=O)Nc1nc(C2CC2)nc(OCCOc2ncc(OC)cn2)c1-c1ccc(C)cc1 [Example 78] | 10 nM | > 1000 nM
CCCCS(=O)(=O)Nc1nc(C2CC2)nc(OCCOc2ncc(SC)cn2)c1-c1ccc(C)cc1 [Example 79] | 2.1 nM | > 1000 nM
CCCCS(=O)(=O)Nc1nc(C2CC2)nc(OCCOc2ncc(S(C)(=O)=O)cn2)c1-c1ccc(C)cc1 [Example 80] | 1.5 nM | > 1000 nM
CCCCS(=O)(=O)Nc1ncnc(OCCOc2ncc(OC)cn2)c1-c1ccc(Br)cc1 [Example 82] | 1.27 nM | > 1000 nM

Now those with a lower IC50 [1], led by results:

IC50 [1] | IC50 [2] | SMILES
1.1 nM | 271 nM | CCS(=O)(=O)Nc1ncnc(OCCOc2ncc(S(C)(=O)=O)cn2)c1-c1ccc(Br)cc1 [Example 61]
1.1 nM | > 1000 nM | CCCCS(=O)(=O)Nc1ncnc(OCCOc2ncc(SC)cn2)c1-c1ccc(C)cc1 [Example 76]
0.8 nM | 427 nM | CCS(=O)(=O)Nc1ncnc(OCCOc2ncc(SC)cn2)c1-c1ccc(Br)cc1 [Example 60]
0.66 nM | 838 nM | CCS(=O)(=O)Nc1ncnc(OCCOc2ncc(Br)cn2)c1-c1ccc(Br)cc1 [Example 58]
0.63 nM | > 1000 nM | CCCCS(=O)(=O)Nc1ncnc(OCCOc2ncc(Br)cn2)c1-c1ccc(C)cc1 [Example 74]
0.6 nM | 936 nM | CCCS(=O)(=O)Nc1ncnc(OCCOc2ncc(SC)cn2)c1-c1ccc(Br)cc1 [Example 72]
0.59 nM | 277 nM | CCCS(=O)(=O)Nc1ncnc(OCCOc2ncc(S(C)(=O)=O)cn2)c1-c1ccc(Br)cc1 [Example 73]
0.56 nM | 118 nM | CCCCS(=O)(=O)Nc1ncnc(OCCOc2ncc(S(C)(=O)=O)cn2)c1-c1ccc(Br)cc1 [Example 84]
0.49 nM | 640 nM | CCCCS(=O)(=O)Nc1ncnc(OCCOc2ncc(SC)cn2)c1-c1ccc(Br)cc1 [Example 83]
